Test results: article PMC9481151, “Discovery of new symmetrical and asymmetrical nitrile-containing 1,4-dihydropyridine derivatives as dual kinases and P-glycoprotein inhibitors: synthesis, in vitro assays, and in silico studies” (Journal of Enzyme Inhibition and Medicinal Chemistry, 2022)

Tests used:
CCRF-CEM = experiment: NCI single dose (10 µM) SRB screen; assay type: cell-based, human; settings: leukaemia, 48 h
HL-60(TB) = experiment: NCI single dose (10 µM) SRB screen; assay type: cell-based, human; settings: leukaemia, 48 h
MOLT-4 = experiment: NCI single dose (10 µM) SRB screen; assay type: cell-based, human; settings: leukaemia, 48 h
RPMI-8226 = experiment: NCI single dose (10 µM) SRB screen; assay type: cell-based, human; settings: leukaemia, 48 h
SR = experiment: NCI single dose (10 µM) SRB screen; assay type: cell-based, human; settings: leukaemia, 48 h
A549/ATCC = experiment: NCI single dose (10 µM) SRB screen; assay type: cell-based, human; settings: non-small cell lung cancer, 48 h
NCI-H226 = experiment: NCI single dose (10 µM) SRB screen; assay type: cell-based, human; settings: non-small cell lung cancer, 48 h
NCI-H23 = experiment: NCI single dose (10 µM) SRB screen; assay type: cell-based, human; settings: non-small cell lung cancer, 48 h
NCI-H322M = experiment: NCI single dose (10 µM) SRB screen; assay type: cell-based; settings: non-small cell lung cancer, 48 h
NCI-H460 = experiment: NCI single dose (10 µM) SRB screen; assay type: cell-based, human; settings: non-small cell lung cancer, 48 h
NCI-H522 = experiment: NCI single dose (10 µM) SRB screen; assay type: cell-based, human; settings: non-small cell lung cancer, 48 h
COLO 205 = experiment: NCI single dose (10 µM) SRB screen; assay type: cell-based, human; settings: colon cancer, 48 h
HCT-116 = experiment: NCI single dose (10 µM) SRB screen; assay type: cell-based, human; settings: colon cancer, 48 h
HT29 = experiment: NCI single dose (10 µM) SRB screen; assay type: cell-based, human; settings: colon cancer, 48 h
KM12 = experiment: NCI single dose (10 µM) SRB screen; assay type: cell-based, human; settings: colon cancer, 48 h
SW-620 = experiment: NCI single dose (10 µM) SRB screen; assay type: cell-based, human; settings: colon cancer, 48 h
SF-268 = experiment: NCI single dose (10 µM) SRB screen; assay type: cell-based, human; settings: CNS cancer, 48 h
SF-295 = experiment: NCI single dose (10 µM) SRB screen; assay type: cell-based, human; settings: CNS cancer, 48 h
SF-539 = experiment: NCI single dose (10 µM) SRB screen; assay type: cell-based, human; settings: CNS cancer, 48 h
SNB-19 = experiment: NCI single dose (10 µM) SRB screen; assay type: cell-based, human; settings: CNS cancer, 48 h
SNB-75 = experiment: NCI single dose (10 µM) SRB screen; assay type: cell-based, human; settings: CNS cancer, 48 h
U251 = experiment: NCI single dose (10 µM) SRB screen; assay type: cell-based, human; settings: CNS cancer, 48 h
LOX IMVI = experiment: NCI single dose (10 µM) SRB screen; assay type: cell-based, human; settings: melanoma, 48 h
MALME-3M = experiment: NCI single dose (10 µM) SRB screen; assay type: cell-based, human; settings: melanoma, 48 h
M14 = experiment: NCI single dose (10 µM) SRB screen; assay type: cell-based, human; settings: melanoma, 48 h
MDA-MB-435 = experiment: NCI single dose (10 µM) SRB screen; assay type: cell-based, human; settings: melanoma, 48 h
SK-MEL-28 = experiment: NCI single dose (10 µM) SRB screen; assay type: cell-based, human; settings: melanoma, 48 h
SK-MEL-5 = experiment: NCI single dose (10 µM) SRB screen; assay type: cell-based, human; settings: melanoma, 48 h
UACC-257 = experiment: NCI single dose (10 µM) SRB screen; assay type: cell-based, human; settings: melanoma, 48 h
IGROV1 = experiment: NCI single dose (10 µM) SRB screen; assay type: cell-based, human; settings: ovarian cancer, 48 h
OVCAR-3 = experiment: NCI single dose (10 µM) SRB screen; assay type: cell-based, human; settings: ovarian cancer, 48 h
OVCAR-4 = experiment: NCI single dose (10 µM) SRB screen; assay type: cell-based, human; settings: ovarian cancer, 48 h
OVCAR-5 = experiment: NCI single dose (10 µM) SRB screen; assay type: cell-based, human; settings: ovarian cancer, 48 h
OVCAR-8 = experiment: NCI single dose (10 µM) SRB screen; assay type: cell-based, human; settings: ovarian cancer, 48 h
NCI/ADR-RES = experiment: NCI single dose (10 µM) SRB screen; assay type: cell-based, human; settings: ovarian cancer, 48 h
SK-OV-3 = experiment: NCI single dose (10 µM) SRB screen; assay type: cell-based, human; settings: ovarian cancer, 48 h
786-0 = experiment: NCI single dose (10 µM) SRB screen; assay type: cell-based, human; settings: renal cancer, 48 h
A498 = experiment: NCI single dose (10 µM) SRB screen; assay type: cell-based, human; settings: renal cancer, 48 h
ACHN = experiment: NCI single dose (10 µM) SRB screen; assay type: cell-based, human; settings: renal cancer, 48 h
CAKI-1 = experiment: NCI single dose (10 µM) SRB screen; assay type: cell-based, human; settings: renal cancer, 48 h
RXF 393 = experiment: NCI single dose (10 µM) SRB screen; assay type: cell-based, human; settings: renal cancer, 48 h
SN12C = experiment: NCI single dose (10 µM) SRB screen; assay type: cell-based, human; settings: renal cancer, 48 h
TK-10 = experiment: NCI single dose (10 µM) SRB screen; assay type: cell-based, human; settings: renal cancer, 48 h
PC-3 = experiment: NCI single dose (10 µM) SRB screen; assay type: cell-based, human; settings: prostate cancer, 48 h
DU-145 = experiment: NCI single dose (10 µM) SRB screen; assay type: cell-based, human; settings: prostate cancer, 48 h
MCF7 = experiment: NCI single dose (10 µM) SRB screen; assay type: cell-based, human; settings: breast cancer, 48 h
MDA-MB-468 = experiment: NCI single dose (10 µM) SRB screen; assay type: cell-based, human; settings: breast cancer, 48 h
NCI 60 cancer cell lines = experiment: NCI single dose (10 µM) SRB screen, mean over panel; assay type: cell-based, human; settings: mean over 60 cell lines, 48 h
Staphylococcus aureus = experiment: Agar well diffusion method
Bacillus subtilis = experiment: Agar well diffusion method; settings: relative to ciprofloxacin
Escherichia coli = experiment: Agar well diffusion method
Aspergillus flavus = experiment: Agar well diffusion method

In the case of `COC(=O)C1=C(C)NC(C)=C(C(=O)OCC(C)C)C1c1cccc(C#N)c1` (racemic) [Compound 2b, (±)-3-Isobutyl 5-methyl 4-(3-cyanophenyl)-2,6-dimethyl-1,4-dihydropyridine-3,5-dicarboxylate], the “GI% CCRF-CEM” value (CCRF-CEM) is reported as “– (Only GI% ≥ 10 are shown)”, the “GI% HL-60(TB)” value (HL-60(TB)) is reported as 18% and the “GI% MOLT-4” value (MOLT-4) is reported as 16%. The “GI% RPMI-8226” value (RPMI-8226) was “– (Only GI% ≥ 10 are shown)”, the “GI% SR” value (SR) was 29% and the “GI% A549/ATCC” value (A549/ATCC) was “– (Only GI% ≥ 10 are shown)”. For the same molecule, the “GI% NCI-H226” value (NCI-H226) was 10%, the “GI% NCI-H23” value (NCI-H23) was “– (Only GI% ≥ 10 are shown)” and the “GI% NCI-H322M” value (NCI-H322M) was “– (Only GI% ≥ 10 are shown)”. The “GI% NCI-H460” value (NCI-H460) was “– (Only GI% ≥ 10 are shown)”, the “GI% NCI-H522” value (NCI-H522) was 15% and the “GI% COLO 205” value (COLO 205) was “– (Only GI% ≥ 10 are shown)”. The “GI% HCT-116” value (HCT-116) was 18%, the “GI% HT29” value (HT29) was “– (Only GI% ≥ 10 are shown)” and the “GI% KM12” value (KM12) was “– (Only GI% ≥ 10 are shown)”. For the same molecule, the “GI% SW-620” value (SW-620) was “– (Only GI% ≥ 10 are shown)”, the “GI% SF-268” value (SF-268) was “– (Only GI% ≥ 10 are shown)” and the “GI% SF-295” value (SF-295) was 18%. For the same molecule, the “GI% SF-539” value (SF-539) was “– (Only GI% ≥ 10 are shown)”, the “GI% SNB-19” value (SNB-19) was “– (Only GI% ≥ 10 are shown)” and the “GI% SNB-75” value (SNB-75) was 22%. For the same molecule, the “GI% U251” value (U251) was “– (Only GI% ≥ 10 are shown)”, the “GI% LOX IMVI” value (LOX IMVI) was “– (Only GI% ≥ 10 are shown)” and the “GI% MALME-3M” value (MALME-3M) was “– (Only GI% ≥ 10 are shown)”. For the same molecule, the “GI% M14” value (M14) was “– (Only GI% ≥ 10 are shown)”, the “GI% MDA-MB-435” value (MDA-MB-435) was “– (Only GI% ≥ 10 are shown)” and the “GI% SK-MEL-28” value (SK-MEL-28) was “– (Only GI% ≥ 10 are shown)”. The “GI% SK-MEL-5” value (SK-MEL-5) was “– (Only GI% ≥ 10 are shown)”, the “GI% UACC-257” value (UACC-257) was “– (Only GI% ≥ 10 are shown)” and the “GI% IGROV1” value (IGROV1) was 12%. The “GI% OVCAR-3” value (OVCAR-3) was “– (Only GI% ≥ 10 are shown)”, the “GI% OVCAR-4” value (OVCAR-4) was “– (Only GI% ≥ 10 are shown)” and the “GI% OVCAR-5” value (OVCAR-5) was “– (Only GI% ≥ 10 are shown)”. The “GI% OVCAR-8” value (OVCAR-8) was “– (Only GI% ≥ 10 are shown)”, the “GI% NCI/ADR-RES” value (NCI/ADR-RES) was “– (Only GI% ≥ 10 are shown)” and the “GI% SK-OV-3” value (SK-OV-3) was “– (Only GI% ≥ 10 are shown)”. For the same molecule, the “GI% 786-0” value (786-0) was “– (Only GI% ≥ 10 are shown)”, the “GI% A498” value (A498) was “– (Only GI% ≥ 10 are shown)” and the “GI% ACHN” value (ACHN) was “– (Only GI% ≥ 10 are shown)”. For the same molecule, the “GI% CAKI-1” value (CAKI-1) was 28%, the “GI% RXF 393” value (RXF 393) was “– (Only GI% ≥ 10 are shown)” and the “GI% SN12C” value (SN12C) was “– (Only GI% ≥ 10 are shown)”. The “GI% TK-10” value (TK-10) was “– (Only GI% ≥ 10 are shown)”, the “GI% PC-3” value (PC-3) was 22% and the “GI% DU-145” value (DU-145) was “– (Only GI% ≥ 10 are shown)”. For the same molecule, the “GI% MCF7” value (MCF7) was 15%, the “GI% MDA-MB-468” value (MDA-MB-468) was “– (Only GI% ≥ 10 are shown)” and the “Mean GI%” value (NCI 60 cancer cell lines) was 5%. For the same molecule, the zone of inhibition at 1000 µg/mL (Staphylococcus aureus; Staphylococcus aureus, 24 h, read-out: Diameter of inhibition zone, S. aureus) was 9 mm, the “% activity index, S. aureus” value (Staphylococcus aureus; relative to ciprofloxacin) was 37.5% and the “% activity index, B. subtilis” value (Bacillus subtilis) was “– (Values below 25 are of limited value and not shown as they refer either to inactive or non-diffusing compounds)”. For the same molecule, the zone of inhibition at 1000 µg/mL (Escherichia coli; Escherichia coli, 24 h, read-out: Diameter of inhibition zone, E. coli) was 9 mm, the “% activity index, E. coli” value (Escherichia coli; relative to ciprofloxacin) was 34.6% and the zone of inhibition at 1000 µg/mL (Aspergillus flavus; Aspergillus flavus, 24 h, read-out: Diameter of inhibition zone, A. flavus) was 11 mm. For the same molecule, the “% activity index, A. flavus” value (Aspergillus flavus; relative to clotrimazole) was 44%.
